Source: patent US20060089408A1, “Method of treating blepharospasm with a prostaglandin derivative” (priority 2004, published 2006)
Several values for one entry are separate records, joined by “and”; a condition that tells them apart may be missing. Equal values may be shown once.

System: patients with blepharospasm
Assay: Observational prospective case series of 21 consecutive patients with blepharospasm treated with Latanoprost
Assay type: in vivo, human
Description: It is the inventor's unique discovery that latanoprost improves some forms of blepharospasm. Over a period of three years starting from 2000, 21 patients with various forms of blepharospasm were treated with latanoprost. In more than 75% of the cases observed, the symptoms of blepharospasm were much improved ranging from mild resolution to complete improvement.
Observational prospective case series of 21 consecutive patients comprising mostly Asian descent with blepharospasm were treated with Latanoprost for a mean follow-up period of 1.5 years. Assessment of therapy was made by symptomatic evaluation and clinical examination. Severity of patient's initial symptoms ranged from myokimia to blepharospasm with facial dystonia.
The patients were pooled from the Los Angeles County metropolitan area and the Pacific Rim and all of the patients are of Chinese descent. The patients were excluded if they had secondary causes of blepharospasm such as light sensitivity, lid hygiene (blepharitis), dry eyes, and emotional or physical psychological stressors.
Therapeutic intervention involved administration of one drop of Latanoprost in the affected eye at night. Adverse effects were assessed by the patient's subjective feedback and physician's examination. Outcome assessment was determined mainly by subjective reporting by the patient.
Table 1 illustrates the physician's grading scale, wherein grade I signified blepharospasm isolated just to the eyes; Grade II described blepharospasm with some form of facial dystonia; and Grade III described blepharospasm with facial dystonia extending to the neck region
Table 2 illustrates patient's subjective evaluation of improvement that subjective opinion of improvement is on a scale ranging from 0 to 10, where zero indicated no improvement and 10 indicated complete resolution.
Table 3 illustrates demographics and clinical data of the patients involved in the above clinical study. In Table 3, F represent female, M represent male, duration represents duration of treatment, OU represents blepharospasm in both eyes, OD represents blepharospasm in right eye only, and OS represents blepharospasm in left eye. Date start illustrates the date starting treatment of prostaglandin derivatives, improvement illustrates the time required for first noticeable improvement, while scale imp represents scale of improvement according to the subjective evaluation grading as shown in Table 2.

SMILES: CC(C)OC(=O)CCC/C=C\C[C@@H]1[C@@H](CC[C@@H](O)CCc2ccccc2)[C@H](O)C[C@@H]1O [Latanoprost, isopropyl-(Z)-7[(1R,2R,3R,5S)3,5-dihydroxy-2-[(3R)-3-hydroxy-5-phenylpentyl]cyclopentyl]-5-heptenoate]
- patients who reported moderate to complete resolution of symptoms after treatment (21 consecutive patients, mean follow-up 1.5 years): over 75%
- cases in which symptoms of blepharospasm were much improved, ranging from mild resolution to complete improvement (21 patients with various forms of blepharospasm, three years starting from 2000): more than 75%
- change in spasm of eyelids and face (Case 1, 30 years history, right eye, 1.5 ug per day, after 3 weeks of treatment): considerable decrease in spasm of their eyelids and face
- patients who noted subjective improvement in their blepharospasm (after treatment, 21 patients): 19 of 21
- patients who reported no change (after treatment, 21 patients): 2 patients
- duration of treatment required before effects were seen (general statement on the series): approximately 2 months
- Improvement (time required for first noticeable improvement) (individual patient, one drop in the affected eye at night): 2 months (13×) and 1 months (6×)
- Scale imp (scale of improvement, patient's subjective evaluation grading) (individual patient, scale 0 to 10: 0 no improvement, 5 50% improvement, 10 complete resolution, one drop in the affected eye at night): 5 (6×) and 10 (2×) and 8 (6×) and 7 and 9 (3×) and 6 and 0 (2×)
- time at which noticeable improvements occurred after initiation of treatment (whole series of 21 patients): 1-2 months
- average amount of improvement (whole series, subjective scale 0 to 10): 6.95
